Results: patent publication US20050256092A1, “Antipsoriatic agent” (priority 2002, published 2005)
Read-outs that look alike come from different tables or passages of the source.

Legend:
[1] = system: adult-human-derived keratinocytes; assay: suppression of proliferation of cultured human keratinocytes ([3H]thymidine uptake); type: cell-based; details: for IC50: [3H]thymidine uptake, cultured 3 days + 1 day, percentage of control, read-out: IC50 (mol/L) value, suppression of human keratinocyte proliferation
Protocol: The effect of suppressing the proliferation of cultured human keratinocytes by 2β-(3-hydroxypropyloxy)-1α,25-dihydroxyvitamin D3 (hereinafter referred to as “ED-71”) was investigated.
KGM-2 culture medium was added to each well of a 96-well plate (COSTAR 3595), and adult-human-derived keratinocytes (Clonetics) were seeded at a cell count of 1×10^3/well. Then, active vitamin D3 (1α,25-dihydroxyvitamin D3, produced by Solvay Pharmaceuticals) or ED-71 (produced by Chugai Seiyaku) was added to each well in a final concentration of 1×10^−10 mol/L, 1×10^−9 mol/L, 1×10^−8 mol/L, or 1×10^−7 mol/L. The cells were cultured in the KGM-2 culture medium at a cell concentration of 1×10^3/200 μl/well for 3 days at 37° C. in an atmosphere of 5% CO2 and 95% air. [^3H]thymidine was added in an amount of 7.4 kBq/well, and the cells were further cultured for 1 day. The culture medium was removed, and the cells were stripped off using 0.05% trypsin/EDTA (GIBCO BRL), and the amount of [^3H]thymidine taken up by the cells was measured with a liquid scintillation counter (1450 MICROBETA, Wallac). The cells cultured and treated in the same manner as described above, except for the addition of the active vitamin D3 or ED-71, were used as a control.
In FIG. 1, the [^3H]thymidine uptake into the cells treated with each drug is expressed as a percentage of the [^3H]thymidine uptake into the control cells.

[2] = system: epidermis of hairless mice; assay: epidermis thickening in hairless mice, percutaneous administration; type: in vivo; details: single percutaneous dose, compared with active vitamin D3
Description: (§1) The effect of ED-71 administered percutaneously and orally was investigated using hairless mice.
(§2) Percutaneous administration of a vitamin D3 derivative in hairless mice was reported to cause hyperplasia of the epidermis (British Journal of Dermatology 1995; 132; 841-852).

[3] = system: epidermis of hairless mice; assay: epidermis thickening in hairless mice, oral administration; type: in vivo; details: administered orally for 4 days, compared with active vitamin D3
Description: as §1, §2

Structure (SMILES)	human keratinocyte proliferation suppressing activity, relative value with respect to active vitamin D3 ([1]; (IC50 value of active vitamin D3)/(IC50 value of ED-71))	IC50 ([1]; Homo sapiens, Keratinocyte)	thickening of the epidermis [2]	thickening of the epidermis [3]	IC50 [1]
C=C1/C(=C\C=C2/CCC[C@@]3(C)C2CC[C@@H]3[C@H](C)CCCC(C)(C)O)C[C@@H](O)[C@@H](OCCCO)[C@@H]1O (stereo partly drawn) [ED-71, 2β-(3-hydroxypropyloxy)-1α,25-dihydroxyvitamin D3]	≥ 305.23	< 0.1 nM	thickened the epidermis in a lower dose than the dose of active vitamin D3	thickened the epidermis in a lower dose than the dose of active vitamin D3	
C=C1/C(=C\C=C2/CCC[C@]3(C)[C@@H]([C@H](C)CCCC(C)(C)O)CC[C@@H]23)C[C@@H](O)C[C@@H]1O [active vitamin D3, 1α,25-dihydroxyvitamin D3, reference compound]					30.5 nM
